Measurements: patent publication US20080096989A1, “Flame Retardant Expanded Polystyrene Foam Compositions” (ALBEMARLE CORPORATION, priority 2004, published 2008)

Assay: Thermal HBr Measurement Test (thermal stability)
Format: physicochemical
Conditions: heated about 15 minutes at about 220° C. under nitrogen; average of duplicate; lower = more thermally stable
Experimental: The thermal stability of N,2-3-dibromopropyl-4,5-dibromohexahydrophthalimde (“compound (I)”) used in accordance with the present invention was evaluated using the Thermal HBr Measurement Test.
First, a sample of from about 0.5 to about 1.0 g flame retardant was weighed into a three neck 50 mL round bottom flask. Teflon tubing was then attached to one of the openings in the flask. Nitrogen was fed into the flask through the Teflon tubing at a flow rate of about 0.5 SCFH. A small reflux condenser was attached to another opening on the flask. The third opening was plugged. An about 50 vol % solution of glycol in water at a temperature of about 85° C. was run through the reflux condenser. Viton tubing was attached to the top of the condenser and to a gas-scrubbing bottle. Two more bottles were attached in series to the first. All three bottles had about 90 mL of about 0.1 N NaOH solutions. After assembling the apparatus, the nitrogen was allowed to purge through the system for about 2 minutes. The round bottom flask was then placed into an oil bath at about 220° C. and the sample was heated for about 15 minutes. The flask was then removed from the oil bath and the nitrogen was allowed to purge for about 2 minutes. The contents of the three gas scrubbing bottles were transferred to a 600 mL beaker. The bottles and viton tubing were rinsed into the beaker. […]

In the case of `O=C1C2CC(Br)C(Br)CC2C(=O)N1CC(Br)CBr` (stereo not shown) [compound I, N,2-3-dibromopropyl-4,5-dibromohexahydrophthalimde], the “HBr (ppm)” value is reported as 2,058 ppm.
